Marks after values point to notes of the source that are not given here.
What follows are compounds tested on Hydrochloric acid-Ethanol-Induced Ulcers (assay: Hydrochloric acid-Ethanol-Induced Ulcers). Settings: Rattus norvegicus, intraduodenal, 1 h, Table 2; dose 5 mg/kg intraduodenally one hour before hydrochloric acid - 60% ethanol; read-out: Inhibition ratio(%).
Format: in vivo, male Wister rats
Description: Experiments on Hydrochloric acid-Ethanol-Induced Ulcers, Aspirin-Induced Ulcers, Water-Immersion stress-Induced Ulcers, Shay's Ulcers and Serotonin-Induced Ulcers were carried out using male Wister rats weighing about 200g in groups of six. Experiments on Ischemia-Reperfusion -Induced Gastric Lesions were carried out using male SD rats weighing about 250g in groups of six. Other than for the tests on Ischemia-Reperfusion-Induced Gastric Lesions Models, the test compounds were prepared by mixing thoroughly with polyethyleneglycol and 0.5% sodium carboxymethyl cellulose solution and emulsifying vigorously. Activities against respective ulcer models were evaluated by an inhibiting ratio obtained by dividing the difference between the ulceration indexes of the non-administered group and the test compound group by the non-administered group.
To each rat which had been fasted for 24 hours was orally administered 0.5ml of a mixed solution of 150 mM hydrochloric acid - 60% ethanol per 100g of weight. Each rat was slaughtered after one hour, a length of ulcer formed at the fundus gland area of stomach was measured and ulceration index was calculated based on the length. The test compound was administered intraduodenally one hour or three hours before the administration of mixed solution of hydrochloric acid - 60% ethanol.

Q: Which inhibition in vivo at 5 mg/kg does the source give for `COC12CC(C)(C)C(O1)C(OCc1ccccc1)C=C2C` (stereo not drawn) [AU157, 1-methoxy-4-benzyloxy-2,6,6-trimethyl-8-oxabicyclo [3.2.1] oct-2-ene] here?
A: Its inhibition in vivo at 5 mg/kg is 64%.

Q: For `COC12CC(C)(C)C(OC(C)=O)C(C=C1C)O2` (stereo not drawn) [AU159, 4-acetoxy-1-methoxy-3,3,7-trimethyl-8-oxabicyclo [3.2.1] oct-6-ene], which inhibition in vivo at 5 mg/kg is on record?
A: The inhibition in vivo at 5 mg/kg was 94%.

Same assay, conditions: Rattus norvegicus, intraduodenal, 1 h, Table 2; dose 10 mg/kg intraduodenally one hour before hydrochloric acid - 60% ethanol; read-out: Inhibition ratio(%)

Q: With `CC1=CC(OCc2ccccc2)C(O)C(C)(C)CC1=O` (stereo not drawn) [AU156, 4-benzyloxy-5-hydroxy-2,6,6-trimethyl-2-cyclohepten-1-one] as the compound, how does the inhibition in vivo at 10 mg/kg read?
A: The inhibition in vivo at 10 mg/kg was 97%.

Q: Which inhibition in vivo at 10 mg/kg does the source give for `COC12CC(C)(C)C(OC(C)=O)C(C=C1C)O2` (stereo not drawn) [AU159, 4-acetoxy-1-methoxy-3,3,7-trimethyl-8-oxabicyclo [3.2.1] oct-6-ene] here?
A: The inhibition in vivo at 10 mg/kg was 83%.

Q: How did the inhibition in vivo at 10 mg/kg turn out when `COC12CC(C)(C)C(O1)C(OC(C)=O)CC2C` (stereo not drawn) [AU108A, 2,4-trans-1-methoxy-4-acetoxy-2,6,6-trimethyl-8-oxabicyclo [3.2.1] octane] was run?
A: The inhibition in vivo at 10 mg/kg was 75%.

Same assay, conditions: Rattus norvegicus, intraduodenal, 1 h, Table 2; dose 20 mg/kg intraduodenally one hour before hydrochloric acid - 60% ethanol; read-out: Inhibition ratio(%)

Q: `COC12CC(C)(C)C(O1)C(O)C=C2C` (stereo not drawn) [AU152, 1-methoxy-2,6,6-trimethyl-8-oxabicyclo [3.2.1] oct-2-en-4-ol] was tested. Which inhibition in vivo at 20 mg/kg did it give?
A: The inhibition in vivo at 20 mg/kg was 87%.

Same assay, conditions: Rattus norvegicus, intraduodenal, 3 h, Table 1; dose 20 mg/kg intraduodenally three hours before hydrochloric acid - 60% ethanol; read-out: Inhibition ratio(%)

Q: `CC1=CC(=O)C(OC(=O)c2ccccc2)C(C)(C)CC1=O` (stereo not drawn) [AU225, 5-benzoyloxy-2,6,6-trimethyl-2-cyclohepten-1,4-dione] was tested. Which inhibition in vivo at 20 mg/kg did it give?
A: Its inhibition in vivo at 20 mg/kg is 36%.

Q: With `CC(=O)Nc1cccc(C(=O)OC2C(OC(C)=O)C=C(C)C(=O)CC2(C)C)c1` (stereo not drawn) [AU224, 5-(3-acetamidobenzoyloxy)-4-acetoxy-2,6,6-trimethyl-2-cyclohepten-1-one] as the compound, how does the inhibition in vivo at 20 mg/kg read?
A: Its inhibition in vivo at 20 mg/kg is 47%.

Q: `CC1=CC(O)C(OC(=O)c2ccc([N+](=O)[O-])cc2)C(C)(C)CC1=O` (stereo not drawn) [AU211, 4-hydroxy-5-(4-nitrobenzoyloxy)-2,6,6-trimethyl-2-cyclohepten-1-one] was tested. Which inhibition in vivo at 20 mg/kg did it give?
A: Its inhibition in vivo at 20 mg/kg is 38%.

Q: With `CC1=CC(OC(=O)c2ccc([N+](=O)[O-])cc2Cl)C(O)C(C)(C)CC1=O` (stereo not drawn) [AU219, 4-(2-chloro-4-nitrobenzoyloxy)-5-hydroxy-2,6,6-trimethyl-2-cyclohepten-1-one] as the compound, how does the inhibition in vivo at 20 mg/kg read?
A: Its inhibition in vivo at 20 mg/kg is 60%.

Q: `COC12CC(C)(C)C(O1)C(=O)CC2C` (stereo not drawn) [AU163, 1-methoxy-2,6,6-trimethyl-8-oxabicyclo [3.2.1] octan-4-one] was tested. Which inhibition in vivo at 20 mg/kg did it give?
A: The inhibition in vivo at 20 mg/kg was 32%.

Q: `CC(=O)OC1C(OC(=O)C=Cc2ccccc2)C=C(C)C(=O)CC1(C)C` (stereo not drawn) [AU208, 5-acetoxy-4-cinnamoyloxy-2,6,6-trimethyl-2-cyclohepten-1-one] was tested. Which inhibition in vivo at 20 mg/kg did it give?
A: The inhibition in vivo at 20 mg/kg was 39%.

Q: For `CC1CC(O)C2OC1(OC(=O)c1ccc([N+](=O)[O-])cc1)CC2(C)C` (stereo not drawn) [AU250, 2,4-cis-1-(4-nitrobenzoyloxy):2,6,6-trimethyl-8-oxabicyclo [3.2.1] octan-4-ol], which inhibition in vivo at 20 mg/kg is on record?
A: Its inhibition in vivo at 20 mg/kg is 36%.

Q: `CC(=O)OC1C=C(C)C(=O)CC(C)(C)C1OC(=O)C=Cc1ccccc1` (stereo not drawn) [AU207, 4-acetoxy-5-cinnamoyloxy-2,6,6-trimethyl-2-cyclohepten-1-one] was tested. Which inhibition in vivo at 20 mg/kg did it give?
A: The inhibition in vivo at 20 mg/kg was 56%.

Q: `CC1=CC(OC(=O)C=Cc2ccccc2)C(O)C(C)(C)CC1=O` (stereo not drawn) [AU206, 4-cinnamoyloxy-5-hydroxy-2,6,6-trimethyl-2-cyclohepten-1-one] was tested. Which inhibition in vivo at 20 mg/kg did it give?
A: Its inhibition in vivo at 20 mg/kg is 72%.

Q: `CC(=O)OC1C(OC(=O)c2ccccc2)CC(C)C(=O)CC1(C)C` (stereo not drawn) [AU194, 2,4-cis-5-acetoxy-4-benzoyloxy-2,6,6-trimethylcycloheptan-1-one] was tested. Which inhibition in vivo at 20 mg/kg did it give?
A: The inhibition in vivo at 20 mg/kg was 23%.

Q: `CC1=CC(O)C(OC(=O)c2ccccc2Cl)C(C)(C)CC1=O` (stereo not drawn) [AU127, 5-(2-chlorobenzoyloxy)-4-hydroxy-2,6,6-trimethyl-2-cyclohepten-1-one] was tested. Which inhibition in vivo at 20 mg/kg did it give?
A: The inhibition in vivo at 20 mg/kg was 87%.

Q: For `COc1ccc(COC2CC(C)C(=O)CC(C)(C)C2OC(C)=O)cc1` (stereo not drawn) [AU185, 2,4-cis-5-acetoxy-4-(4-methoxybenzyloxy)-2,6,6-trimethylcycloheptan-1-one], which inhibition in vivo at 20 mg/kg is on record?
A: The inhibition in vivo at 20 mg/kg was 34%.

Q: How did the inhibition in vivo at 20 mg/kg turn out when `CC1=CC(O)C(OC(=O)c2nc[nH]c2C)C(C)(C)CC1=O` (stereo not drawn) [AU504, 4-hydroxy-5-(5-methyl-4-imidazolylcarbonyloxy)-2,6,6-trimethyl-2-cyclohepten-1-one] was run?
A: The inhibition in vivo at 20 mg/kg was 39%.

Q: Which inhibition in vivo at 20 mg/kg does the source give for `COc1ccc(C(=O)OC2C=C(C)C(=O)CC(C)(C)C2O)cc1` (stereo not drawn) [AU195, 5-hydroxy-4-(4-methoxybenzoyloxy)-2,6,6-trimethyl-2-cyclohepten-1-one] here?
A: The inhibition in vivo at 20 mg/kg was 40%.

Q: For `CC(C)=CCOC1CC(C)(C)C(O)C(OC(=O)c2ccccc2)C=C1C` (stereo not drawn) [AU144, 4-benzoyloxy-1-(3-methyl-2-buten-1-yloxy)-2,6,6-trimethyl-2-cyclohepten-5-ol], which inhibition in vivo at 20 mg/kg is on record?
A: The inhibition in vivo at 20 mg/kg was 51%.

Q: With `CC1=CC(OC(=O)C=Cc2ccc(O)cc2)C(O)C(C)(C)CC1=O` (stereo not drawn) [AU506, 5-hydroxy-4-(4-hydroxycinnamoyloxy)-2,6,6-trimethyl-2-cyclohepten-1-one] as the compound, how does the inhibition in vivo at 20 mg/kg read?
A: The inhibition in vivo at 20 mg/kg was 81%.

Q: `COC1CC(C)C(=O)CC(C)(C)C1OC(=O)c1ccccc1` (stereo not drawn) [AU123B, 2,4-cis-5-benzoyloxy-4-methoxy-2,6,6-trimethyl cycloheptan-1-one] was tested. Which inhibition in vivo at 20 mg/kg did it give?
A: Its inhibition in vivo at 20 mg/kg is 25%.

Q: How did the inhibition in vivo at 20 mg/kg turn out when `CC1=CC(O)C(OC(=O)c2cccc(N)c2)C(C)(C)CC1=O` (stereo not drawn) [AU209, 5-(3-aminobenzoyloxy)-4-hydroxy-2,6,6-trimethyl-2-cyclohepten-1-one] was run?
A: The inhibition in vivo at 20 mg/kg was 38%.

Q: `CC1CC(O)C2OC1(OC(=O)c1ccc(N)cc1)CC2(C)C` (stereo not drawn) [AU251, 2,4-cis-1-(4-aminobenzoyloxy)-2,6,6-trimethyl-8-oxabicyclo [3.2.1] octan-4-ol] was tested. Which inhibition in vivo at 20 mg/kg did it give?
A: Its inhibition in vivo at 20 mg/kg is 30%.

Q: For `CC(=O)OC1C(OC(=O)c2ccc(N)cc2)C=C(C)C(=O)CC1(C)C` (stereo not drawn) [AU197, 5-acetoxy-4-(4-aminobenzoyloxy)-2,6,6-trimethyl-2-cyclohepten-1-one], which inhibition in vivo at 20 mg/kg is on record?
A: The inhibition in vivo at 20 mg/kg was 44%.

Q: Which inhibition in vivo at 20 mg/kg does the source give for `COC1C(OC(=O)c2ccc(N)cc2)C=C(C)C(=O)CC1(C)C` (stereo not drawn) [AU239, 4-(4-aminobenzoyloxy)-5-methoxy-2,6,6-trimethyl-2-cyclohepten-1-one] here?
A: Its inhibition in vivo at 20 mg/kg is 41%.

Q: Which inhibition in vivo at 20 mg/kg does the source give for `CC(=O)Nc1ccc(C(=O)OC2C=C(C)C(=O)CC(C)(C)C2O)cc1` (stereo not drawn) [AU237, 4-(4-acetamidobenzoyloxy)-5-hydroxy-2,6,6-trimethyl-2-cyclohepten-1-one] here?
A: The inhibition in vivo at 20 mg/kg was 30%.

Q: For `CC(=O)Oc1ccc(C(=O)OC2C=C(C)C(=O)CC(C)(C)C2O)cc1` (stereo not drawn) [AU217, 4-(4-acetoxybenzoyloxy)-5-hydroxy-2,6,6-trimethyl-2-cyclohepten-1-one], which inhibition in vivo at 20 mg/kg is on record?
A: The inhibition in vivo at 20 mg/kg was 48%.

Q: How did the inhibition in vivo at 20 mg/kg turn out when `COC1C=C(C)C(=O)CC(C)(C)C1OC(=O)Cc1csc(N)n1` (stereo not drawn) [AU243, 5-(2-aminothiazol-4-yl) acetoxy-4-methoxy-2,6,6-trimethyl-2-cyclohepten-1-one] was run?
A: The inhibition in vivo at 20 mg/kg was 29%.

Q: Which inhibition in vivo at 20 mg/kg does the source give for `COC1C=C(C)C(=O)CC(C)(C)C1OC(=O)c1ccccc1` (stereo not drawn) [AU121, 5-benzoyloxy-4-methoxy-2,6,6-trimethyl-2-cyclohepten-1-one] here?
A: The inhibition in vivo at 20 mg/kg was 50%.

Q: For `COC12CC(C)(C)C(O1)C(OC(C)=O)CC2C` (stereo not drawn) [AU108A, 2,4-trans-1-methoxy-4-acetoxy-2,6,6-trimethyl-8-oxabicyclo [3.2.1] octane], which inhibition in vivo at 20 mg/kg is on record?
A: Its inhibition in vivo at 20 mg/kg is 55%.

Q: How did the inhibition in vivo at 20 mg/kg turn out when `CC1=CC(O)C(OC(=O)c2ccccc2)C(C)(C)CC1=O` (stereo not drawn) [AU183, 5-benzoyloxy-4-hydroxy-2,6,6-trimethyl-2-cyclohepten-1-one] was run?
A: Its inhibition in vivo at 20 mg/kg is 73%.

Q: For `COC1C=C(C)C(=O)CC(C)(C)C1OC(=O)c1ccc2nc(N)[nH]c2c1` (stereo not drawn) [AU415, 5-(2-aminobenzimidazolyl-5-carbonyloxy)-4-methoxy-2,6,6-trimethyl-2-cyclohepten-1-one], which inhibition in vivo at 20 mg/kg is on record?
A: Its inhibition in vivo at 20 mg/kg is 30%.

Q: How did the inhibition in vivo at 20 mg/kg turn out when `COC1CC(C)(C)C(OC(=O)c2ccccc2)C(O)C=C1C` (stereo not drawn) [AU115, 5-benzoyloxy-1-methoxy-2,6,6-trimethyl-2-cyclohepten-4-ol] was run?
A: Its inhibition in vivo at 20 mg/kg is 83%.

Same assay, conditions: Table 1; dose 20 mg/kg intraduodenally three hours before hydrochloric acid - 60% ethanol; 20 mg/kg

Q: For `COC12CC(C)(C)C(O1)C(O)CC2C` (stereo not drawn) [AU105A, 2,4-trans-1-methoxy-2,6,6-trimethyl-8-oxabicyclo [3.2.1] octan-4-ol], which “Inhibition ratio(%)” value is on record?
A: Its value is 44* %.
